Experimental findings from US6709681B2, “Acidified nitrite as an antimicrobial agent” (Aberdeen University, priority 1995, dated 2004) are described below.

Data set [1] has as its system caries-producing organisms in dental plaque; C albicans. The note with it: toothpaste, mouthwash or other orally acceptable vehicle.
For data set [2] the following is noted: 45 minutes after ingestion of 200 mg potassium nitrate solution; fasting mean 114 μM.
The test system of a further data set is C albicans. As for the experimental part: With reference to FIG. 1 a single colony of C albicans was used to inoculate an overnight culture in Sabouraud's broth. 10 μl of this broth was added to 940 μl of a citrate/phosphate buffered Sabouraud's broth to which was added sodium nitrite (50 μl; final concentration 250 μM) or distilled water as a control. After one hour incubation at 37° C., 10 μl was removed and cultured in 190 μl standard Sabourauds broth with continual agitation (Gallenkamp orbital incubator) in a 96-well microtitre plate at 37° C. Growth was monitored by measurement of optical density at 570 nm at regular time intervals. The results are a mean of 16 separate experiments.
The open bars show the growth of C albicans measured by the optical density method following exposure to acid alone for 1 hour, while the closed bars show growth following exposure to acid and 250 μM sodium nitrite.

Data set [3] has as its system E coli (strain NCTC 10418). The text has this:
The results shown in FIGS. 2A and 2B are a mean of 20 experiments.
The methods are those as for FIG. 2.

Each structure is given as a SMILES string. Read-outs that look alike come from different tables or passages of the source.

As for `O=[N+]([O-])O` [nitrate], the “reduction of caries-producing organisms in dental plaque / treatment or prevention of infection with C albicans” value in data set [1] is on record as “effective”.

As to `O=[N+]([O-])[O-].[K+]` [potassium nitrate], the “salivary nitrite (mean)” value in data set [2] stood at 1030 µM.

For `O=NO` [sodium nitrite], in the data set on C albicans (5 nN nitrite, up to pH5), the “killing of C albicans” value is on record as “killed C albicans”. Also, in the data set on C albicans (250 μgM sodium nitrite, one hour, pH reduced to below 4), the “survival of C albicans (growth by optical density)” value was “incrementally killed C albicans”. Further, the “elimination of C albicans” value in the data set with C albicans (pH 1, all concentrations above 250 μM (data not shown)) is “effective in eliminating C albicans”. Besides, the “reduction of caries-producing organisms in dental plaque / treatment or prevention of infection with C albicans” value in data set [1] is given as “effective”. In addition, the “effect on E coli” value in data set [3] (250 μM nitrite, above pH4) was “no effect”. Also, in data set [3] (250 μM nitrite, pH 2, 3 and 4), the “growth of E coli compared with control (acid alone)” value is given as “significantly (p<0.05) impaired”. Moreover, the “survival of E coli” value in data set [3] (250 μM nitrite, pH2, one hour) was “eliminates E coli”. Also, the “viability of E coli” value in data set [3] (250 μM nitrite, pH3 and pH4) is “significantly reduces the viability”. Further, the “toxic effect on E coli” value is “discernable effect” in data set [3] (pH3, 10 μM) and “killed E coli completely” in data set [3] (pH3, 1 mM).
